Data: US20170158776A1, “TREATMENT OF LUNG CANCER USING A COMBINATION OF AN ANTI-PD-1 ANTIBODY AND ANOTHER ANTI-CANCER AGENT” (Bristol-Myers Squibb Company, priority 2014, published 2017)
Entries after “also recorded” stand apart in the source; their conditions may differ. Marks after values point to notes of the source that are not given here.

What was measured:
[1] = tested on: pts with advanced NSCLC after first-line PT-based chemotherapy; design: species or system human; conditions: in vivo
Description: (§1) Pts with no progression within 42 days of completing ≧4 cycles first-line PT-based chemotherapy (±BEV) were assigned to either nivolumab (N) 5 mg/kg IV Q3W+BEV 15 mg/kg IV Q3W (non-squamous [non-sq] pts only; n=12) or N 3 mg/kg IV Q2W monotherapy (sq arm [n===8] or non-sq arm [n=13]) until progression/unacceptable toxicity (treatment beyond progression allowed based on protocol-defined criteria). ORR was evaluated using RECIST 1.1.

patients with NSCLC = assay: Nivolumab monotherapy arm (Arm F), efficacy; type: in vivo, human
Description: One arm was developed to test the effect of nivolumab monotherapy on NSCLC. Patients were treated with 3 mg/kg nivolumab (nivo) q2w (once every 2 weeks).

[2] = tested on: pts with advanced NSCLC after first-line PT-based chemotherapy; assay: Phase 1: switch to nivolumab maintenance as monotherapy or with bevacizumab, efficacy (RECIST 1.1); type: in vivo, human
Description: as §1

[3] = tested on: heavily pretreated patients with advanced NSCLC; assay: CA209-003 phase 1: nivolumab monotherapy, safety

nivolumab
Any-grade treatment-related adverse events [1]: 62%
grade 3 pleural effusion [1]: 1 n
grade 3 pneumonitis [1]: 2 n
pts discontinued due to treatment-related AEs [1]: Four
treatment-related grade 4 AEs [1]: No treatment-related grade 4 AEs were reported
Best Overall Response: CR (patients with NSCLC; Arm F (n = 52)): 4 (8%)
Best Overall Response: PD (patients with NSCLC; Arm F (n = 52)): 20 (38%)
Best Overall Response: PR (patients with NSCLC; Arm F (n = 52)): 8 (15%)
Best Overall Response: SD (patients with NSCLC; Arm F (n = 52)): 14 (27%)
Best Overall Response: Unable to determine (patients with NSCLC; Arm F (n = 52)): 6 (12%)
Best Overall Response: Unconfirmed PR (patients with NSCLC; Arm F (n = 52)): 0
Confirmed DCR (patients with NSCLC; Arm F (n = 52)): 26 (50%)
Confirmed ORR (patients with NSCLC; Arm F (n = 52)): 12 (23%)
Overall DCR (patients with NSCLC; Arm F (n = 52)): 26 (50%)
Overall ORR (patients with NSCLC; Arm F (n = 52)): 12 (23%)
>80% target lesion reduction at 18 wks (patients with NSCLC; Arm F N = 52): 3 (6%)
Median OS (patients with NSCLC; Arm F N = 52): 22.6 mos
Median PFS (patients with NSCLC; Arm F N = 52): 15.6 wks
Number of responders (patients with NSCLC; Arm F N = 52): 12 (23%)
OS rate at 12 months (patients with NSCLC; Arm F N = 52): 74%
Ongoing responder (patients with NSCLC; Arm F N = 52): 8 (67%)
PFS rate at 24 weeks (patients with NSCLC; Arm F N = 52): 41%
Best Overall Response: CR (patients with NSCLC; Non-squamous (n = 39)): 3 (8%)
Best Overall Response: PD (patients with NSCLC; Non-squamous (n = 39)): 7 (18%)
Best Overall Response: PR (patients with NSCLC; Non-squamous (n = 39)): 7 (18%)
Best Overall Response: SD (patients with NSCLC; Non-squamous (n = 39)): 0
Best Overall Response: Unable to determine (patients with NSCLC; Non-squamous (n = 39)): 6 (15%)
Best Overall Response: Unconfirmed PR (patients with NSCLC; Non-squamous (n = 39)): 0
Confirmed DCR (patients with NSCLC; Non-squamous (n = 39)): 18 (46%)
Confirmed ORR (patients with NSCLC; Non-squamous (n = 39)): 10 (26%)
Overall DCR (patients with NSCLC; Non-squamous (n = 39)): 18 (46%)
Overall ORR (patients with NSCLC; Non-squamous (n = 39)): 10 (26%)
Best Overall Response: CR (patients with NSCLC; Squamous (n = 13)): 1 (8%)
Best Overall Response: PD (patients with NSCLC; Squamous (n = 13)): 5 (38%)
Best Overall Response: PR (patients with NSCLC; Squamous (n = 13)): 1 (8%)
Best Overall Response: SD (patients with NSCLC; Squamous (n = 13)): 6 (46%)
Best Overall Response: Unable to determine (patients with NSCLC; Squamous (n = 13)): 0
Best Overall Response: Unconfirmed PR (patients with NSCLC; Squamous (n = 13)): 0
Confirmed DCR (patients with NSCLC; Squamous (n = 13)): 8 (62%)
Confirmed ORR (patients with NSCLC; Squamous (n = 13)): 2 (15%)
Overall DCR (patients with NSCLC; Squamous (n = 13)): 8 (62%)
Overall ORR (patients with NSCLC; Squamous (n = 13)): 2 (15%)
Stable disease as best overall response ([2]; all pts of the treatment): 48%
Median PFS ([2]; non-sq pts): 21.4 weeks
Stable disease as best overall response ([2]; non-sq pts): 46%
Median PFS ([2]; sq pts): 16.0 weeks
Stable disease as best overall response ([2]; sq pts): 50%
Median OS ([2]; switch maintenance): not reached
ORR ([2]; switch maintenance, RECIST 1.1): 10%
Patients with any treatment-related select AE, Any Grade ([3]; N = 129): 41 (53) % (n)
Patients with any treatment-related select AE, Grade 3-4 ([3]; N = 129): 5 (6) % (n)
select AE Endocrinopathies, Any Grade ([3]; N = 129): 6 (8) % (n)
select AE Endocrinopathies, Grade 3-4 ([3]; N = 129): 0 % (n)
select AE Gastrointestinal, Any Grade ([3]; N = 129): 12 (15) % (n)
select AE Gastrointestinal, Grade 3-4 ([3]; N = 129): 1 (1) % (n)
select AE Hepatic, Any Grade ([3]; N = 129): 5 (6) % (n)
select AE Hepatic, Grade 3-4 ([3]; N = 129): 1 (1) % (n)
select AE Infusion reaction, Any Grade ([3]; N = 129): 4 (5) % (n)
select AE Infusion reaction, Grade 3-4 ([3]; N = 129): 1 (1) % (n)
select AE Pulmonary, Any Grade ([3]; N = 129): 7 (9)^c % (n)
select AE Pulmonary, Grade 3-4 ([3]; N = 129): 2 (3) % (n)
select AE Renal, Any Grade ([3]; N = 129): 3(4) % (n)
select AE Renal, Grade 3-4 ([3]; N = 129): 0 % (n)
select AE Skin, Any Grade ([3]; N = 129): 16 (20) % (n)
select AE Skin, Grade 3-4 ([3]; N = 129): 0 % (n)
decreased appetite ([3]; NSCLC cohort): 12%
diarrhea ([3]; NSCLC cohort): 10%
fatigue ([3]; NSCLC cohort): 24%
Rate of grade 3-4 treatment-related AEs ([3]; NSCLC cohort (n = 129)): 14%
patients with grade 3-5 treatment-related pneumonitis ([3]; NSCLC cohort, 4 patients): 3%
patients with treatment-related pulmonary events ([3]; NSCLC cohort, 12 patients): 9%
treatment-related deaths ([3]; all associated with pneumonitis): Three
Rate of grade 3-4 treatment-related AEs ([3]; overall study patient population (N = 306)): 17%
maximum tolerated dose ([3]; up to 10 mg/kg every two weeks): without reaching the maximum tolerated does (MTD); also recorded: A maximum tolerated dose was not reached
